Measured values taken from patent US11459332B2, “Substituted 2-azabicyclo[3.1.0]hexanes as TRK kinases inhibitors” (FOCHON BIOSCIENCES, LTD., priority 2018, dated 2022).

Columns and labels:
Type in all cases: cell-based
KM12 cells = KM12 cells proliferation inhibition (MTS), mechanism-based TRK assay; conditions: Homo sapiens, 72 h
Description: (§1) MTS testing kit was purchased from Promega (Madison, Wis., USA). The RPMI-1640, Fetal bovine serum and Penicillin-Streptomycin were purchased from Gibco (San Francisco, Calif., USA). Dimethyl sulfoxide (DMSO) and Puromycin were purchased from Sigma (St. Louis, Mo., USA). Mouse interleukin-3 (IL-3) was purchased from Cell signaling Technology (Boston, Mass., USA).
To investigate whether a compound is able to inhibit the activity of TRK in cells, a mechanism-based assay using KM12 cells was developed. In this assay, inhibition of TRK was detected by the inhibition of KM12 cells proliferation. KM12 cells were cultured in culture flasks to 40-80% confluence in RPMI-1640 plus 10% fetal bovine serum. Cells were collected and plated onto 96-well plates at 1000 cells/well. Plates were incubated at 37° C., with 5% CO2 for 4 h. Compounds were added to the plates, the final compound concentrations were […], 123.5, 41.2, 13.7, 4.6 and 1.5 nM. Place plates at 37° C., with 5% CO2 for KM12 cells 72 h. 20 μl MTS/100 μl medium mixture solution were added to each well and incubate the plates for exactly 2 h. Stop the reaction by adding 25 μl 10% SDS per well. Measure absorbance at 490 nm and 650 nm (reference wavelength). IC50 was calculated using GraphPad Prism 5.0.

ETV6-TRKC = biological target: T1, ETV6-TRKC (Homo sapiens, UniProt Q16288); test: Engineered Ba/F3 cell proliferation inhibition (MTS), ETV6-TRKC; conditions: Ba/F3-ETV6-TRKC cells, 72 h
T1 construct: ETV6 (fusion partner, N-terminal part); expressed in transfected cells; the other entry of the earlier key: ETV6 (P41212, Transcription factor ETV6)
Description: as §1
(§2) To investigate whether a compound is able to inhibit the activity of TRK fusion mutation in cells, a mechanism-based assay using engineered Ba/F3 cell lines stably overexpressing oncogenic rearrangement or gene mutation of TRK (TPM3-TRKA, TPM3-TRKA-G595R, AFAP1-TRKB, ETV6-TRKC and ETV6-TRKC-G623R) were developed. In this assay, inhibition of TRK fusion mutation was detected by the cell proliferation inhibition of engineered Ba/F3 cells. Engineered Ba/F3 cells were cultured in culture flasks to 40-80% confluence in RPMI-1640 supplemented with 10% fetal bovine serum, 2 ug/mL puromycin. Cells were collected and plated onto 96-well plates at desired cell density (Ba/F3-TPM3-TRKA: 3×10^4/mL, Ba/F3-TPM3-TRKA-G595R: 1×10^5/mL, Ba/F3-AFAP1-TRKB: 1×10^5/mL, Ba/F3-ETV6-TRKC: 3×10^4/mL, Ba/F3-ETV6-TRKC-G623R: 3×10^4/mL). Plates were incubated at 37° C., with 5% CO2 for 4 h. Compounds were then added to the plates with the final compound concentrations of 10000, 3333, 1111, […], 123, 41.2, 13.7, 4.6 and 1.5 nM. Plates were incubated at 37° C., with 5% CO2 for 72 h. A mixture of 20 μl MTS/100 μl medium were added to each well and the plates were incubated at 37° C., with 5% CO2 for exactly 2 h. The reaction was stopped by adding 25 μl of 10% SDS per well. The absorbance was measured at 490 nm and 650 nm (reference wavelength). IC50 was calculated using GraphPad Prism 5.0 software.

TPM3-TRKA = biological target: T2, TPM3-TRKA (Homo sapiens, UniProt P04629); test: Engineered Ba/F3 cell proliferation inhibition (MTS), TPM3-TRKA; conditions: Ba/F3-TPM3-TRKA cells, 72 h
T2 construct: TPM3 (fusion partner, N-terminal part); expressed in transfected cells; the other entry of the earlier key: TPM3 (P06753, Tropomyosin alpha-3 chain)
Description: as §1, §2

TPM3-TRKA-G595R = biological target: T3, TPM3-TRKA-G595R (Homo sapiens, UniProt P04629, G595R); test: Engineered Ba/F3 cell proliferation inhibition (MTS), TPM3-TRKA-G595R; conditions: Ba/F3-TPM3-TRKA-G595R cells, 72 h
T3 construct: TPM3 (fusion partner, N-terminal part); expressed in transfected cells; the other entry of the earlier key: TPM3 (P06753, Tropomyosin alpha-3 chain)
Description: as §1, §2

T1 sequence (Q16288 530-825 isoform Q16288-3 limits assumed): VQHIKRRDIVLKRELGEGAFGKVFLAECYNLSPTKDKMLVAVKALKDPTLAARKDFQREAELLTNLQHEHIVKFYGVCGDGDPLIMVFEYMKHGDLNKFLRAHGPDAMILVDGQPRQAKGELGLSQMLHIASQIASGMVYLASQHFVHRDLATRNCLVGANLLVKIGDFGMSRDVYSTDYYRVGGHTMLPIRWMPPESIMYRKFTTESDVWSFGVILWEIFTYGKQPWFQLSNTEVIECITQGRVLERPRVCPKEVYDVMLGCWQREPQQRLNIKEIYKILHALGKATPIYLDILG
T2 sequence (P04629 510-796 limits assumed): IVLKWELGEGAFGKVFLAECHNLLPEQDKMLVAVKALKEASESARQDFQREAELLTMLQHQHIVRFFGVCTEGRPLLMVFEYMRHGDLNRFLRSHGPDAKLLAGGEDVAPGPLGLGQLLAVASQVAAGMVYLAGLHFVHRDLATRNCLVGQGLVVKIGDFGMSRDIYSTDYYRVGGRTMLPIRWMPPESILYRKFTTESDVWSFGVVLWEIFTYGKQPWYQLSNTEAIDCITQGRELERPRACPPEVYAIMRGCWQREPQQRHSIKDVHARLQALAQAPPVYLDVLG
T3 sequence (P04629 510-796 G595R limits assumed): as the sequence (P04629 510-796 limits assumed) above, with G86R counted along it

| SMILES | IC50 (KM12 cells) | IC50 (ETV6-TRKC) | IC50 (TPM3-TRKA) | IC50 (TPM3-TRKA-G595R) |
| --- | --- | --- | --- | --- |
| O=C(Nc1cnn2ccc(N3CC[C@H]4C[C@]43c3cc(F)ccc3F)nc12)N1CCC(F)C1 (stereo in doubt) [Example 10, (R)-N-(5-((1R,5S)-1-(2,5-difluorophenyl)-2-azabicyclo[3.1.0]hexan-2-yl)pyrazolo [1,5-a]pyrimidin-3-yl)-3-fluoropyrrolidine-1-carboxamide] | 23 nM | 2 nM |  |  |
| O=C(Nc1cnn2ccc(N3CC[C@H]4C[C@]43c3cc(F)ccc3Cl)nc12)N1CC[C@H](O)C1 [Example 2, (S)—N-(5-((1R,5S)-1-(2-chloro-5-fluorophenyl)-2-azabicyclo[3.1.0]hexan-2-yl)pyrazolo[1,5-a]pyrimidin-3-yl)-3-hydroxypyrrolidine-1-carboxamide] | 42 nM | 7 nM | 44 nM |  |
| O=C(Nc1cnn2ccc(N3CC[C@H]4C[C@]43c3cc(F)ccc3Cl)nc12)N1CC[C@@H](O)C1 [Example 3, (R)—N-(5-((1R,5S)-1-(2-chloro-5-fluorophenyl)-2-azabicyclo[3.1.0]hexan-2-yl)pyrazolo[1,5-a]pyrimidin-3-yl)-3-hydroxypyrrolidine-1-carboxamide] | 36 nM | 17 nM | 47 nM |  |
| O=C(Nc1cnc2ccc(N3CC[C@H]4C[C@]43c3cc(F)ccc3F)nn12)N1CC[C@H](O)C1 [Example 4, (S)—N-(6-((1R,5S)-1-(2,5-difluorophenyl)-2-azabicyclo[3.1.0]hexan-2-yl)imidazo[1,2-b]pyridazin-3-yl)-3-hydroxypyrrolidine-1-carboxamide] | 2 nM | 1 nM | 5 nM |  |
| CC(C)c1nnc(-c2cnn3ccc(N4CC[C@H]5C[C@]54c4cc(F)ccc4F)nc23)o1 [Example 5, 2-(5-((1R,5S)-1-(2,5-difluorophenyl)-2-azabicyclo[3.1.0]hexan-2-yl)pyrazolo[1,5-a]pyrimidin-3-yl)-5-isopropyl-1,3,4-oxadiazole] | 9 nM |  | 6 nM | 40 nM |
| O=C(Nc1cnn2ccc(N3CC[C@H]4C[C@]43c3cc(F)ccc3F)nc12)N1CC[C@@H](O)C1 [Example 7, (R)-N-(5-((1R,5S)-1-(2,5-difluorophenyl)-2-azabicyclo[3.1.0]hexan-2-yl)pyrazolo[1,5-a]pyrimidin-3-yl)-3-hydroxypyrrolidine-1-carboxamide] | 20 nM | 3 nM | 3 nM |  |
| O=C(Nc1cnc2ccc(N3CC[C@H]4C[C@]43c3cc(F)ccc3F)nn12)N1CC[C@@H](O)C1 [Example 8, (R)-N-(6-((1R,5S)-1-(2,5-difluorophenyl)-2-azabicyclo[3.1.0]hexan-2-yl)imidazo[1,2-b]pyridazin-3-yl)-3-hydroxypyrrolidine-1-carboxamide] | 25 nM | 5 nM | 5 nM |  |
| CO[C@H]1CCN(C(=O)Nc2cnn3ccc(N4CC[C@H]5C[C@]54c4cc(F)ccc4F)nc23)C1 [Example 9, (S)-N-(5-((1R,5S)-1-(2,5-difluorophenyl)-2-azabicyclo[3.1.0]hexan-2-yl)pyrazolo [1,5-a]pyrimidin-3-yl)-3-methoxypyrrolidine-1-carboxamide] | 42 nM | 4 nM |  |  |
| O=C(Nc1cnn2ccc(N3CC[C@H]4C[C@]43c3cc(F)ccc3F)nc12)N1CC[C@@H](F)C1 [Example 11, (R)-N-(5-((1R,5S)-1-(2,5-difluorophenyl)-2-azabicyclo[3.1.0]hexan-2-yl)pyrazolo [1,5-a]pyrimidin-3-yl)-3-fluoropyrrolidine-l-carboxamide] | 53 nM |  |  |  |
| O=C(Nc1cnn2ccc(N3CC[C@H]4C[C@]43c3cc(F)ccc3F)nc12)N1CCC(F)(F)C1 [Example 12, N-(5-((1R,5S)-1-(2,5-difluorophenyl)-2-azabicyclo [3.1.0]hexan-2-yl)pyrazolo[1,5-a]pyrimidin-3-yl)-3,3-difluoropyrrolidine-1-carboxamide] | 2 nM | 9 nM |  |  |
| O=C(Nc1cnn2ccc(N3CC[C@H]4C[C@]43c3cc(F)ccc3F)nc12)c1ccccn1 [Example 15, N-(5-((1R,5S)-1-(2,5-difluorophenyl)-2-azabicyclo [3.1.0]hexan-2-yl)pyrazolo[1,5-a]pyrimidin-3-yl) picolinamide] | 1 nM | 1 nM | 1 nM | 18 nM |
| Cc1cccc(C(=O)Nc2cnn3ccc(N4CC[C@H]5C[C@]54c4cc(F)ccc4F)nc23)n1 [Example 16, N-(5-((1R,5S)-1-(2,5-difluorophenyl)-2-azabicyclo [3.1.0]hexan-2-yl)pyrazolo[1,5-a]pyrimidin-3-yl)-6-methylpicolinamide] | 1 nM | 1 nM | 1 nM | 5 nM |
| Cc1cccnc1C(=O)Nc1cnn2ccc(N3CC[C@H]4C[C@]43c3cc(F)ccc3F)nc12 [Example 17, N-(5-((1R,5S)-1-(2,5-difluorophenyl)-2-azabicyclo [3.1.0]hexan-2-yl)pyrazolo[1,5-a]pyrimidin-3-yl)-3-methylpicolinamide] | 1 nM | 1 nM | 2 nM |  |
| Cc1ccc(C(=O)Nc2cnn3ccc(N4CC[C@H]5C[C@]54c4cc(F)ccc4F)nc23)nc1 [Example 18, N-(5-((1R,5S)-1-(2,5-difluorophenyl)-2-azabicyclo [3.1,0]hexan-2-yl)pyrazolo[1,5-a]pyrimidin-3-yl)-5-methylpicolinamide] | 2 nM | 1 nM | 33 nM |  |
| O=C(Nc1cnn2ccc(N3CC[C@H]4C[C@]43c3cc(F)ccc3F)nc12)c1ccc(F)cn1 [Example 19, N-(5-((1R,5S)-1-(2,5-difluorophenyl)-2-azabicyclo [3.1.0]hexan-2-yl)pyrazolo[1,5-a]pyrimidin-3-yl)-5-fluoropicolinamide] | 1 nM | 1 nM | 2 nM |  |
| Cc1cnc(C(=O)Nc2cnn3ccc(N4CC[C@H]5C[C@]54c4cc(F)ccc4F)nc23)nc1 [Example 20, N-(5-((1R,5S)-1-(2,5-difluorophenyl)-2-azabicyclo [3.1.0]hexan-2-yl)pyrazolo[1,5-a]pyrimidin-3-yl)-5-methylpyrimidine-2-carboxamide] | 6 nM | 1 nM | 14 nM | 67 nM |
| O=C(Nc1cnn2ccc(N3CC[C@H]4C[C@]43c3cc(F)ccc3F)nc12)c1ncc(F)cn1 [Example 21, N-(5-((1R,5S)-1-(2,5-difluorophenyl)-2-azabicyclo [3.1.0]hexan-2-yl)pyrazolo[1,5-a]pyrimidin-3-yl)-5-fluoropyrimidine-2-carboxamide] | 24 nM | 1 nM | 10 nM |  |
| O=C(Nc1cnn2ccc(N3CC[C@H]4C[C@]43c3cc(F)ccc3F)nc12)c1ccc(Cl)cn1 [Example 24, 5-chloro-N-(5-((1R,5S)-1-(2,5-difluorophenyl)-2-azabicyclo[3.1.0]hexan-2-yl)pyrazolo[1,5-a]pyrimidin-3-yl)picolinamide] | 38 nM | 16 nM |  |  |
| O=C1c2ccccc2CN1c1cnn2ccc(N3CC[C@H]4C[C@]43c3cc(F)ccc3F)nc12 [Example 28, 2-(5-((1R,5S)-1-(2,5-difluorophenyl)-2-azabicyclo [3.1.0]hexan-2-yl)pyrazolo[1,5-a]pyrimidin-3-yl)isoindolin-1-one] |  | 2 nM | 19 nM |  |
